US9242984B2, “Pyrazolyl derivatives as Syk inhibitors” (Merck Sharp & Dohme Corp., priority 2012, dated 2016)
pIC50: −log10 of the molar value. Where two headings read alike, the source gives them in different places.

Molecular target: T1, recombinant human Syk (GST-hSyk fusion protein) (Homo sapiens, UniProt P43405)
T1 construct: purchased Carna Biosciences 08-176
Assay: Homogeneous Time-Resolved Fluorescence (HTRF) assay for the recombinant human Syk enzyme
Format: biochemical
Details: 10-dose titration, 25 μM ATP
Summary of the method: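 GST-hSyk (5 pM) preincubated 10 min with compound (0.1% DMSO) in 15 mM Tris-HCl pH 7.5, 2 mM DTT; reaction started with 250 nM biotinylated peptide, 5 mM Mg, 25 μM ATP, 45 min, room temperature. EDTA quench, Eu-anti-phosphotyrosine/SA-APC HTRF read after 30 min; IC50 from 10-dose titration (10 μM–0.508 nM), four-parameter fit.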

[1] = IC50 class, read-out: rhSYK Activity

pIC50 (read-out: rhSYK IC50) | pIC50 [1] | Structure (SMILES)
– | ≥ 7.00 | Cc1cc(Nc2nccc(C(F)(F)F)n2)cc(-c2cnn(C[C@]3(O)CC[C@@H](C(=O)O)CC3)c2)c1 [Example 5.5, cis-4-hydroxy-4-{[4-(3-methyl-5-{[4-(trifluoro-methyl)pyrimidin-2-yl]amino}-phenyl)-1H-pyrazol-1-yl]methyl}-cyclo-hexanecarboxylic acid]
– | ≥ 7.00 | Cc1cc(Nc2cc(C(F)(F)F)ccn2)nc(-c2cnn3c2CCC3)c1 [Example 1.15, 6-(5,6-dihydro-4H-pyrrolo[1,2-b]pyrazol-3-yl)-4-methyl-N-[4-(trifluoromethyl)pyridin-2-yl]pyridin-2-amine]
– | ≥ 7.00 | Cc1cc(Nc2nccc(C(F)(F)F)n2)cc(-c2cnn(CC3(O)CCOCC3)c2)c1 [Example 12.5, 4-{[4-(3-methyl-5-{[4-(trifluoromethyl)pyrimidin-2-yl]amino}phenyl)-1H-pyrazol-1-yl]methyl}-tetrahydro-2H-pyran-4-ol]
– | ≥ 7.00 | CC(=O)C(C)n1cc(-c2cc(C)cc(Nc3nccc(C(F)F)n3)c2)cn1 (stereo not drawn) [Example 3.98, 3-[4-(3-{[4-(difluoromethyl)pyrimidin-2-yl]amino}-5-methylphenyl)-1H-pyrazol-1-yl]butan-2-one]
– | ≥ 7.00 | Cc1cc(Nc2nccc(C(F)(F)F)n2)cc(-c2cnn(C(C)C(N)=O)c2)c1 (stereo not drawn) [Example 8.20, 2-[4-(3-methyl-5-{[4-(trifluorometh-yl)pyrimidin-2-yl]amino}phenyl)-1H-pyrazol-1-yl]propanamide]
– | ≥ 7.00 | Cc1cc(Nc2nccc([C@@H](C)F)n2)cc(-c2cnn(CC(C)(O)CO)c2)c1 (single isomer, unassigned) [Example 25.8]
– | ≥ 7.00 | Cc1cc(Nc2nccc(C(F)F)n2)cc(-c2cnn(CC3OC(=O)NC3C)c2)c1 (single isomer, unassigned) [Example 23.9, 5-{[4-(3-{[4-(difluoromethyl)pyrimidin-2-yl]amino}-5-methylphenyl)-1H-pyrazol-1-yl]methyl}-4-methyl-1,3-oxazolidin-2-one]
– | ≥ 7.00 | COc1nc(Nc2cc(C)cc(-c3cnn(C[C@H](O)C(=O)O)c3)c2)ncc1Cl [Example 11.6, (2S)-3-(4-{3-[(5-chloro-4-methoxy-pyrimidin-2-yl)-amino]-5-methyl-phenyl}-1H-pyrazol-1-yl)-2-hydroxy-propanoic acid]
– | ≥ 7.00 | O=C1NCC(Cn2cc(-c3cccc(Nc4cc(C(F)F)ccn4)n3)cn2)O1 (stereo not drawn) [Example 3.84, 5-{[4-(6-{[4-(difluoromethyl)pyridin-2-yl]amino}pyridin-2-yl)-1H-pyrazol-1-yl]methyl}-1,3-oxazolidin-2-one]
– | ≥ 7.00 | Cc1cc(Nc2nccc(C(F)(F)F)n2)cc(-c2cnn(CC3CCO3)c2)c1 (stereo not drawn) [Example 3.18, N-{3-methyl-5-[1-(oxetan-2-ylmethyl)-1H-pyrazol-4-yl]-phenyl}-4-(trifluoro-methyl)-pyrimidin-2-amine]
– | ≥ 7.00 | Cc1cc(Nc2nccc(C(F)F)n2)cc(-c2cnn(CC3CNC(=O)O3)c2)c1 (stereo not drawn) [Example 2.63, 5-{[4-(3-{[4-(difluoromethyl)pyrimidin-2-yl]amino}-5-methylphenyl)-1H-pyrazol-1-yl]methyl}-1,3-oxazolidin-2-one]
– | ≥ 7.00 | Cc1cc(Nc2nccc(C(F)F)n2)cc(-c2cnn(Cc3c[nH]cn3)c2)c1 [Example 3.110, 4-(difluoromethyl)-N-{3-[1-(1H-imidazol-4-ylmethyl)-1H-pyrazol-4-yl]-5-methylphenyl}pyrimidin-2-amine]

Further lines, the compound ahead of its results:

Structure (SMILES) | pIC50 (read-out: rhSYK IC50) | pIC50 [1]
Cc1cc(Nc2nccc(C)n2)cc(-c2cnn(C3CCCC(O)C3O)c2)c1 (stereo not drawn) [Example 10.9, 3-(4-{3-methyl-5-[(4-methylpyrimidin-2-yl)amino]phenyl}-1H-pyrazol-1-yl)cyclohexane-1,2-diol] | 8.32 | ≥ 7.00
Cc1cc(Nc2nccc(C)n2)cc(-c2cnn(CC3OC(=O)NC3(C)C)c2)c1 (stereo not drawn) [Example 3.106, 4,4-dimethyl-5-[(4-{3-methyl-5-[(4-methylpyrimidin-2-yl)amino]phenyl}-1H-pyrazol-1-yl)methyl]-1,3-oxazolidin-2-one] | – | ≥ 7.00
Cc1cc(Nc2nccc(C(F)F)n2)cc(-c2cnn(CC3OC(=O)NC3C3CC3)c2)c1 (stereo not drawn) [Example 23.17, 4-cyclopropyl-5-{[4-(3-{[4-(difluoromethyl)pyrimidin-2-yl]amino}-5-methylphenyl)-1H-pyrazol-1-yl]methyl}-1,3-oxazolidin-2-one] | – | ≥ 7.00
Cc1cc(Nc2nccc(C(F)F)n2)cc(-c2cnn(C(C)C3CNC(=O)O3)c2)c1 (stereo not drawn) [Example 3.93, 5-{1-[4-(3-{[4-(difluoromethyl)pyrimidin-2-yl]amino}-5-methylphenyl)-1H-pyrazol-1-yl]ethyl}-1,3-oxazolidin-2-one] | – | ≥ 7.00
Cc1cc(Nc2nccc(C(F)F)n2)cc(-c2cnn(CC(O)(CO)C(F)(F)F)c2)c1 (single isomer, unassigned) [Example 25.1, 2-((4-(3-((4-(Difluoromethyl)pyrimidin-2-yl)amino)-5-methylphenyl)-1H-pyrazol-1-yl)methyl)-3,3,3-trifluoropropane-1,2-diol] | 8.49 | ≥ 7.00
Cc1cc(Nc2nccc(C(F)F)n2)cc(-c2cnn(C3CCCC(O)C3O)c2)c1 (single isomer, unassigned) [Example 10.5, 3-[4-(3-{[4-(difluoromethyl)pyrimidin-2-yl]amino}-5-methylphenyl)-1H-pyrazol-1-yl]cyclohexane-1,2-diol] | 8.28 | ≥ 7.00
Cc1cc(Nc2nccc(C(F)F)n2)cc(-c2cnn(C3CC(C)(C)CC(C)(O)C3O)c2)c1 (stereo not drawn) [Example 22.9, 3-[4-(3-{[4-(difluoromethyl)pyrimidin-2-yl]amino}-5-methylphenyl)-1H-pyrazol-1-yl]-1,5,5-trimethylcyclohexane-1,2-diol] | 8.96 | ≥ 7.00
Cc1cc(Nc2nccc(C(F)(F)F)n2)cc(-c2cnn(CC3OC(=O)NC3(C)C)c2)c1 (stereo not drawn) [Example 3.99, 4,4-dimethyl-5-{[4-(3-methyl-5-{[4-(trifluoromethyl)pyrimidin-2-yl]amino}phenyl)-1H-pyrazol-1-yl]methyl}-1,3-oxazolidin-2-one] | – | ≥ 7.00
Cc1cc(Nc2nccc(C)n2)cc(-c2cnn(CC3(O)CCOCC3)c2)c1 [Example 12.13, 4-[(4-{3-methyl-5-[(4-methylpyrimidin-2-yl)amino]phenyl}-1H-pyrazol-1-yl)methyl]-tetrahydro-2H-pyran-4-ol] | – | 6.00 to 7.00
Cc1cc(Nc2ncc(Cl)c(C)n2)cc(-c2cnn(C[C@@H](O)C(=O)O)c2)c1 [Example 11.7, (2R)-3-(4-{3-[(5-chloro-4-methyl-pyrimidin-2-yl)-amino]-5-methyl-phenyl}-1H-pyrazol-1-yl)-2-hydroxy-propanoic acid] | – | ≥ 7.00
Cc1cc(Nc2nccc(C(F)(F)F)n2)cc(-n2cc(C3(O)CCC(C(=O)O)C(C)(C)C3)cn2)c1 (stereo not drawn) [Example 19.14, 4-hydroxy-2,2-dimethyl-4-[1-(3-methyl-5-{[4-(trifluoromethyl)pyrimidin-2-yl]amino}phenyl)-1H-pyrazol-4-yl]cyclohexanecarboxylic acid] | – | 6.00 to 7.00
Cc1cc(Nc2nccc(C(F)F)n2)cc(-c2cnn(CC3OC(=O)NC34CC4)c2)c1 (stereo not drawn) [Example 3.94, 7-{[4-(3-{[4-(difluoromethyl)pyrimidin-2-yl]amino}-5-methylphenyl)-1H-pyrazol-1-yl]methyl}-6-oxa-4-azaspiro[2.4]heptan-5-one] | – | ≥ 7.00
COCC(=O)NCCn1cc(-c2cc(C)cc(Nc3nccc(C(F)F)n3)c2)cn1 [Example 26.5, N-{2-[4-(3-{[4-(difluoromethyl)pyrimidin-2-yl]amino}-5-methylphenyl)-1H-pyrazol-1-yl]ethyl}-2-methoxyacetamide] | – | ≥ 7.00
Cc1cc(Nc2nccc(C(F)F)n2)cc(-c2cnn(CC3(C)CNC(=O)O3)c2)c1 (stereo not drawn) [Example 3.124, 5-{[4-(3-{[4-(difluoromethyl)pyrimidin-2-yl]amino}-5-methylphenyl)-1H-pyrazol-1-yl]methyl}-5-methyl-1,3-oxazolidin-2-one] | – | ≥ 7.00
Cc1cc(Nc2nccc(C(F)(F)F)n2)cc(-c2cnn(CCCN3CCNC3=O)c2)c1 [Example 3.6, 1-{3-[4-(3-methyl-5-{[4-(trifluoro-methyl)pyrimidin-2-yl]amino}-phenyl)-1H-pyrazol-1-yl]-propyl}imidazolidin-2-one] | – | ≥ 7.00
Cc1cc(Nc2nccc(C(F)(F)F)n2)cc(-c2cnn(CC(=O)N3COCC3(C)C)c2)c1 [Example 3.11, N-(3-{1-[2-(4,4-dimethyl-1,3-oxazolidin-3-yl)-2-oxoethyl]-1H-pyrazol-4-yl}-5-methylphenyl)-4-(trifluoromethyl)pyrimidin-2-amine] | – | ≥ 7.00
Cc1cc(Nc2nccc(OCCO)n2)cc(-c2cnn(C3CCC(C(N)=O)CC3)c2)c1 (stereo not drawn) [Example 8.17, 4-[4-(3-{[4-(2-hydroxy-ethoxy)pyrimidin-2-yl]amino}-5-methylphenyl)-1H-pyrazol-1-yl]-cyclo-hexanecarboxamide] | – | ≥ 7.00
Cc1cc(Nc2cc(C(F)(F)F)ccn2)nc(-c2cnn(CC(=O)OC(C)(C)C)c2)c1 [Example 1.30, tert-butyl [4-(4-methyl-6-{[4-(trifluoromethyl)pyridin-2-yl]amino}pyridin-2-yl)-1H-pyrazol-1-yl]acetate] | – | ≥ 7.00
Cc1cc(Nc2nccc(C(F)(F)F)n2)cc(-c2cnn(CC3(O)CCC3)c2)c1 [Example 12.2, 1-{[4-(3-methyl-5-{[4-(trifluoro-methyl)pyrimidin-2-yl]amino}-phenyl)-1H-pyrazol-1-yl]-methyl}-cyclobutanol] | – | ≥ 7.00
Cc1cc(Nc2nccc(C(F)(F)F)n2)cc(-c2cnn(C[C@H](N)C(N)=O)c2)c1 [Example 7.2, 3-[4-(3-methyl-5-{[4-(trifluoro-methyl)pyrimidin-2-yl]amino}phenyl)-1H-pyrazol-1-yl]-1-alaninamide] | – | ≥ 7.00
